Where two headings read alike, the source gives them in different places.
Assays:
H460MX20 cells = assay: Sensitization of lung cancer cells overexpressing ABCG2 to SN-38, MTT assay; format: cell-based, human; settings: H460MX20, SN-38 10 nM, 72 h, IC50 value or 5 µM
Experimental: Cell viability was evaluated with a 3-(4,5-dimethylthiazol-2-yl)-2,5-diphenyltetrazolium bromide (MTT) colorimetric assay. HEK293 WT and HEK293-ABCG2 cells were seeded into 96-well culture plates at a 1.5 × 10^4 cells/well density. After overnight incubation, the cells were treated with various concentrations of compounds (0–100 µM) for 72 h at 37 °C under 5% CO2. […] Sensitization experiments were also carried out on H460 and H460MX20 cells. For these experiments, H460 and H460MX20 cells were seeded into 96-well culture plates at 1.0 × 10^4 cells/well density. […] After the treatment, the culture medium was removed and 100 μL of a 0.5 mg.mL^−1 MTT solution was added. Cells were then incubated for 4 h at 37 °C under 5% CO2. The formazan crystals were dissolved with a solution of DMSO/ethanol (1:1) and the absorbance was measured at 570 nm using a Multiscan FC microplate reader (Thermo Scientific). The results were expressed as percentage of viable cells versus control cells (0.1% DMSO, v/v) taken as 100%.

ABCG2 [1] = target: T1, ABCG2 (Homo sapiens, UniProt Q9UNQ0); assay: Thermostabilization assay (ATPase activity after heating); format: biochemical; settings: 10 µM, curves with or without ATP
T1 sequence (Q9UNQ0 1-655): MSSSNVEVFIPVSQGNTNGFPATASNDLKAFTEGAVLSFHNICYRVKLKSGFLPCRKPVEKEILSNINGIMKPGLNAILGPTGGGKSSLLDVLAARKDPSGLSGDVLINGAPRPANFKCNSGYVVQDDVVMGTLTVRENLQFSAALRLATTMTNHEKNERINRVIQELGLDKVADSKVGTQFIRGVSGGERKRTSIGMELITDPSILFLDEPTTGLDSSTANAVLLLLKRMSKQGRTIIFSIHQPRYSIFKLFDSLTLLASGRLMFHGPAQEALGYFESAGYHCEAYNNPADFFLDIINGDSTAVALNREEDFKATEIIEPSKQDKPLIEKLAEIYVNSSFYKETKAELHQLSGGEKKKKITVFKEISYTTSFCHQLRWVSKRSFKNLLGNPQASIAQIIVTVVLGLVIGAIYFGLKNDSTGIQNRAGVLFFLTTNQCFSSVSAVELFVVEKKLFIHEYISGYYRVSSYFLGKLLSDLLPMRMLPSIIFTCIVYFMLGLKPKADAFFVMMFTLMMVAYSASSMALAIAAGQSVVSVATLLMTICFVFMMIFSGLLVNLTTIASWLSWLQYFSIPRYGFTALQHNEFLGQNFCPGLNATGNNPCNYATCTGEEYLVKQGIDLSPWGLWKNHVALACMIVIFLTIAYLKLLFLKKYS
Experimental: The thermal stability assay was performed according to the published. Total membrane prepared from High Five insect cells overexpressing the ABCG2 at 3 µg protein/tube concentration were incubated with assay buffer composed by 50 mM Tris–HCl, pH 6.8, 150 mM N-methyl-D-glucamine (NMDG)-Cl, 5 mM sodium azide, 1 mM ouabain and 2 mM DTT in the presence or absence of 0.3 mM orthovanadate at final volume of 50 µL. To evaluate the effect of those inhibitors over thermal stability, each sample was prepared with 12.5 mM MgCl2 or 6.25 mM ATP and incubated with a temperature range from 37 to 71 °C for 10 min using a thermocycler C1000 Touch (Bio-Rad, Hercules, CA). After incubation, 10 µL of 25 mM ATP or 50 mM MgCl2 (5 and 10 mM final concentration, respectively) was added and incubated at 37 °C/20 min to allow ATP hydrolysis. The reaction was stopped with the addition of 50 µL of Pi solution containing 1% ammonium molibdate, 2.5 N H2SO4 and 0.014% potassium-antimony tartrate. To evaluate the absorbance, the samples were transferred to a 96 well plate (50 µL/well), added 150 µL of 0.33% sodium ascorbate solution. The absorbance was measured after 15 min incubation at room temperature using the microplate reader Spectramax iD3 (Molecular Devices, San Jose, CA). The sensitive activity to vanadate (Vi) was calculated as the difference between the activity in the absence of Vi minus the activity in the presence of Vi to each temperature.

ABCG2 [2] = target: T1, ABCG2; assay: ABCG2 ATPase activity, High-Five insect cell total membranes; format: biochemical; set-up: expressed in transfected cells
Experimental: The ATPase assay was carried out as previously described. High-Five insect cell total membranes overexpressing ABCG2 were used at a concentration of 5 µg protein/tube in a final volume of 100 µL. The membranes were incubated in assay buffer containing 50 mM Tris–HCl, pH 6.8, 150 mM N-methyl-D-glucamine (NMDG)-Cl, 5 mM sodium azide, 1 mM EGTA, 1 mM ouabain, 2 mM DTT, and 10 mM MgCl2, in the presence or absence of sodium orthovanadate (0.3 mM). The protein-buffer mix was treated with the compounds at increasing concentrations (0.001–5 µM) and incubated for 20 min at 37 °C in the presence of ATP (5 mM). The reaction was stopped with the addition of 100 µL of 5% SDS, for color development was added 400 µL of Pi solution (sulfuric acid 36.2 N, water, ammonium molybdate and antimony potassium tartrate) and 200 µL of 1% ascorbic acid. The absorbance was measured after 10 min at 880 nm using a spectrophotometer Ultrospec 3100 pro (Amersham Biosciences).
Table S2. Effect of indeno[1,2-b]indole derivatives on the ATPase activity of ABCG2.The vanadate-sensitive ATPase activity of ABCG2 was measured using the total membranes of High-Five insect cells expressing this transporter as described previously [S5]. The EC50 (concentration required to achieve 50% stimulation) is given as the concentration ± SD (nM) of three independent experiments in duplicate.

[3] = EC50 (nM ± SD) values of stimulation on the ATPase activity of ABCG2, vanadate-sensitive ATPase, High-Five insect cell total membranes
[4] = EC50 of stimulation of ABCG2 ATPase activity, approximate values

Structure (SMILES) | Chemosensitization to SN-38 (H460MX20 cells) | Thermostabilization effect (ABCG2 [1]) | EC50 (ABCG2 [2]; approximate values, read-out: EC50 of stimulation of ABCG2 ATPase activity) | EC50 (ABCG2 [2]; vanadate-sensitive ATPase, High-Five insect cell total membranes, read-out: EC50 (nM ± SD) values of stimulation on the ATPase activity of ABCG2) | EC50 (ABCG2 [2]; [3]) | EC50 (ABCG2 [2]; [4])
COc1cc2c(cc1OC)-c1c(c3c(n1CCc1ccccc1)CC(C)CC3=O)C2=O (centres unmarked) [5e, 2,3-Dimethoxy-7-methyl-5-phenethyl-5,6,7,8-tetrahydroindeno[1,2-b]indole-9,10-dione] | chemoresistance phenotype was fully reversed | moderate effect | ~170 nM | 170 ± 11 nM | – | –
COc1ccccc1CCn1c2c(c3c(O)cc(C)cc31)C(=O)c1ccccc1-2 [6a, 9-Hydroxy-7-methyl-5-(2-methoxyphenethyl)-5H-indeno[1,2-b]indol-10(5H)-one] | chemoresistance phenotype was fully reversed | moderate effect | – | – | 2.9 ± 0.45 nM | ~3 nM
COc1ccc2[nH]cc(CCn3c4c(c5c(O)cccc53)C(=O)c3ccccc3-4)c2c1 [6c, 9-Hydroxy-5-(2-(5-methoxy-1H-indol-3-yl)ethyl)indeno[1,2-b]indol-10(5H)-one] | – | most pronounced effect | – | – | 4.4 ± 0.71 nM | ~3 nM
COc1cccc(CCn2c3c(c4c(O)cccc42)C(=O)c2ccc(O)cc2-3)c1 [6d, 3,9-Dihydroxy-5-(3-methoxyphenethyl)indeno[1,2-b]indol-10(5H)-one] | – | most pronounced effect | – | – | 3.2 ± 0.44 nM | ~3 nM

Reference: article PMC7815716, “Mechanistic basis of breast cancer resistance protein inhibition by new indeno[1,2-b]indoles” (Scientific Reports, 2021)
